Experimental data published in patent US20120308554A1, “VEGF-D/VEGFR2/3-MEDIATED REGULATION OF DENDRITES” (UNIVERSITAT HEIDELBERG, priority 2011, published 2012).

How the values were obtained:
[1] = tested on: VEGFC; test: qRT-PCR analysis of VEGFC expression in hippocampal neurons; type: cell-based, mice; details: hippocampal neurons infected with rAAV
Experimental: Total RNA was isolated at DIV10 to DIV13 from hippocampal primary neuron cultures or isolated brain tissues with Rneasy Mini Kit (Qiagen, Hilden, Germany) including an optional Dnase I treatment at room temperature for 15 min according to manufacturer's instructions (Qiagen). 1.2 μg of extracted RNA was reverse transcribed into first strand cDNA using High Capacity cDNA Reverse Transcription kit (Applied Biosystems, Foster City, Calif.).
Quantitative reverse transcriptase PCR (qRT-PCR) was done on an ABI7300 thermal cycler using Universal qRT-PCR master mix with TaqMan Gene Expression Assays for the indicated genes (Applied Biosystems). The following TaqMan Gene Expression Assays were used in this study: Gusb (Mm00446953_m1), cFos (Mm00487425_m1), VEGFD (Mm00438965_m1), VEGFC (Mm01202432_m1), VEGF (Mm01281449_m1), VEGFR3 (Mm01292618_m1), beta-actin (Mm00607939_s1), beta-2 microglobulin (Mm00437762_m1), CBP (Mm01342435_m1), p38 MAPK alpha (Mm00442497_m1), p38 MAPK beta (Mm00440955_m1). Expression of target genes was normalized against the expression of Gusb as endogenous control gene. Data were derived from at least 5 independent experiments.

[2] = tested on: VEGFD, VEGF, VEGFC and VEGFR3; test: qRT-PCR analysis of shRNA knock-down of VEGF family members; type: cell-based, mice; details: hippocampal neurons infected with rAAV
Experimental: Total RNA was isolated at DIV10 to DIV13 from hippocampal primary neuron cultures or isolated brain tissues with Rneasy Mini Kit (Qiagen, Hilden, Germany) including an optional Dnase I treatment at room temperature for 15 min according to manufacturer's instructions (Qiagen). 1.2 μg of extracted RNA was reverse transcribed into first strand cDNA using High Capacity cDNA Reverse Transcription kit (Applied Biosystems, Foster City, Calif.). Quantitative reverse transcriptase PCR (qRT-PCR) was done on an ABI7300 thermal cycler using Universal qRT-PCR master mix with TaqMan Gene Expression Assays for the indicated genes (Applied Biosystems). The following TaqMan Gene Expression Assays were used in this study: Gusb (Mm00446953_m1), cFos (Mm00487425_m1), VEGFD (Mm00438965_m1), VEGFC (Mm01202432_m1), VEGF (Mm01281449_m1), VEGFR3 (Mm01292618_m1), beta-actin (Mm00607939_s1), beta-2 microglobulin (Mm00437762_m1), CBP (Mm01342435_m1), p38 MAPK alpha (Mm00442497_m1), p38 MAPK beta (Mm00440955_m1). Expression of target genes was normalized against the expression of Gusb as endogenous control gene. Data were derived from at least 5 independent experiments. For expression of shRNAs, an rAAV vector containing the U6 promoter for shRNA expression and a CaMKII promoter driving mCherry expression was used. Three different sequences were obtained from Open Biosystems ([…] 2 and […] 3), cloned and tested for silencing efficiency. […] As control, a scramble version of this sequence ([…] ID NO: 2) and the vector carrying only the mCherry ([…]) were used. Shp38alpha [NT] ID NO: 3), shp38beta [NT] ID NO: 4), […] ID NO: 5), […] ID NO: 6) and […] ID NO: 7; sequence obtained from Open Biosystems www.openbiosystems.com) were also cloned into the same vector. CBP expression level was knocked down using a pool of four short interfering RNAs (siRNAs) targeting mouse CBP (Accell siRNA SMARTpool; Thermo Scientific Dharmacon). The SMARTpool is a group of four siRNAs that have been screened to reduce a variety of potential off-target effects including the inclusion of miRNA (microRNA)-like seed motifs. Silencing of GAPDH was measured using Accell mouse GAPDH as a positive control, and as a negative control, a non-targeting Accell mouse siRNA pool was used. In addition, a fluorescently labeled non-targeting Accell mouse siRNA was also used to evaluate penetration efficiency in hippocampal neurons via immunocytochemistry. Briefly, 500 nM siRNAs were supplemented in the serum-free culturing medium at DIV8, and mRNA levels were analyzed at DIV13.

[3] = tested on: hippocampal neurons; type: cell-based, mice; details: hippocampal neurons infected with rAAV
Excerpt: E: Analysis of apoptosis of hippocampal cultures uninfected or infected with the indicated rAAVs. Values are expressed as percentage of the total number of cells analyzed.

[4] = tested on: C57BL/6 mice; test: Morris water maze; type: in vivo
Experimental: rAAVs were delivered by stereotaxic injection into the right dorsal hippocampus of 2 months old male C57BL/6 mice. For the Golgi staining-based morphometric analysis, viral particles were unilaterally injected over a period of 20 min at the following coordinates relative to Bregma: anteroposterior, −2.1 mm; mediolateral, −1.4 mm; dorsoventral, −1.4 to −1.8 mm from the skull surface. For behavior experiments mice were injected bilaterally.
The behavioral experiments started three weeks after stereotaxic delivery of rAAVs. Mice were habituated to the experimental room and handled once a day for three consecutive days before testing started. Two different sets of mice were used for Morris water maze and contextual fear conditioning experiments. At the end of the experiments, virus infection was assessed.
Mice were first tested in the hidden-platform version and next in the visible-platform version of the water maze. The water maze consisted of a circular pool (120 cm diameter) filled with opaque water (water was made opaque with non-toxic white paint). The platform (10 cm diameter) was submerged 1 cm below the water level. On the first day of the hidden-platform version, mice were habituated to the water and the platform for two 60 seconds trials. In each habituation trial, mice were allowed to swim for 30 seconds and then placed on the platform for another 30 seconds. During the acquisition phase, mice were placed four times a day into a pool with a submerged platform located in a fixed position (approximately 5 minutes inter-trial interval) for four days. […] On the fifth day, mice were given a 60 second probe trial, for which the platform was not in the pool. This was followed by four more days of training. A second probe trial was given on the tenth day. In the visible-platform version, mice were trained to find the platform using a proximal visible cue (red ball placed 10 cm above the platform). […] The path of the mouse was recorded using a video tracking system (ANY-Maze, Stoelting, Ireland).

Substance: shVEGFD: shRNA targeting mouse VEGFD mRNA (GGGCTTCAGGAGCGAACAT; SEQ ID NO: 1), expressed from rAAV vector or plasmid with U6 promoter
- Expression of VEGFC [1]: not affected
- mRNA levels of respective targets [2]: reduced mRNA levels of their respective targets
- cell death [3]: no increase in cell death
- Swimming speed ([4]; hidden-platform acquisition, versus rAAV-shSCR): not different between the two groups
- time to find hidden platform (escape latency), effect of treatment ([4]; hidden-platform version, versus rAAV-shSCR): no effect of treatment was observed
- time spent in quadrants during probe trial ([4]; probe trial, 60 sec): spent similar amounts of time in the different quadrants
